Laboratory results published in ChEMBL document CHEMBL1151757, “Synthesis, radiosynthesis, and biological evaluation of fluorine-18-labeled 2beta-carbo(fluoroalkoxy)-3beta-(3'-((Z)-2-haloethenyl)phenyl)nortropanes: candidate radioligands for in vivo imaging of the serotonin transporter with positron emission tomography” (J Med Chem, 2008).

system: Medulla; assay: Drug uptake in anesthetized cynomolgus monkey brain medulla after 18.5 mins postinjection; format: ADME, organism-based, Macaca fascicularis; conditions: in vivo

Compound | Drug uptake
O=C(OCCC[18F])C1C2CCC(CC1c1cccc(/C=C\Br)c1)N2 (stereo unspecified) | 5.87

system: Caudate; assay: Drug uptake in anesthetized cynomolgus monkey brain caudate after 2.5 mins postinjection; format: ADME, organism-based, Macaca fascicularis, Caudate nucleus; conditions: in vivo

Compound | Drug uptake
O=C(OCCC[18F])C1C2CCC(CC1c1cccc(/C=C\Br)c1)N2 (stereo unspecified) | 0.83

system: Thalamus; assay: Drug uptake in anesthetized cynomolgus monkey brain thalamus after 12.5 mins postinjection; format: ADME, organism-based, Macaca fascicularis; design: unit not given here; conditions: in vivo

Compound | Drug uptake
O=C(OCCC[18F])C1C2CCC(CC1c1cccc(/C=C\Br)c1)N2 (stereo unspecified) | 4.31

system: Pons; assay: Drug uptake in anesthetized cynomolgus monkey brain pons after 0.5 mins postinjection; format: ADME, organism-based, Macaca fascicularis; conditions: in vivo

Compound | Drug uptake
O=C(OCCC[18F])C1C2CCC(CC1c1cccc(/C=C\Br)c1)N2 (stereo unspecified) | 0.01

system: Medulla; assay: Drug uptake in anesthetized cynomolgus monkey brain medulla after 65 mins postinjection; format: ADME, organism-based, Macaca fascicularis; conditions: in vivo

Compound | Drug uptake
O=C(OCCC[18F])C1C2CCC(CC1c1cccc(/C=C\Br)c1)N2 (stereo unspecified) | 5.61

system: Midbrain; assay: Drug uptake in anesthetized cynomolgus monkey brain midbrain after 125 mins postinjection; format: ADME, organism-based, Macaca fascicularis; design: unit not given here; conditions: in vivo

Compound | Drug uptake
O=C(OCCC[18F])C1C2CCC(CC1c1cccc(/C=C\Br)c1)N2 (stereo unspecified) | 5.5

system: Pons; assay: Drug uptake in anesthetized cynomolgus monkey brain pons after 27.5 mins postinjection; format: ADME, organism-based, Macaca fascicularis; conditions: in vivo

Compound | Drug uptake
O=C(OCCC[18F])C1C2CCC(CC1c1cccc(/C=C\Br)c1)N2 (stereo unspecified) | 5.03

system: Thalamus; assay: Drug uptake in anesthetized cynomolgus monkey brain thalamus after 235 mins postinjection; format: ADME, organism-based, Macaca fascicularis; design: unit not given here; conditions: in vivo

Compound | Drug uptake
O=C(OCCC[18F])C1C2CCC(CC1c1cccc(/C=C\Br)c1)N2 (stereo unspecified) | 3.48

system: not listed separately; assay: Drug uptake in anesthetized cynomolgus monkey brain frontal lobe after 165 mins postinjection; format: ADME, organism-based, Macaca fascicularis; conditions: in vivo, 2.75 h

Compound | Drug uptake
O=C(OCCC[18F])C1C2CCC(CC1c1cccc(/C=C\Br)c1)N2 (stereo unspecified) | 2.58

system: Thalamus; assay: Drug uptake in anesthetized cynomolgus monkey brain thalamus after 215 mins postinjection; format: ADME, organism-based, Macaca fascicularis; design: unit not given here; conditions: in vivo

Compound | Drug uptake
O=C(OCCC[18F])C1C2CCC(CC1c1cccc(/C=C\Br)c1)N2 (stereo unspecified) | 3.62

system: Caudate; assay: Drug uptake in anesthetized cynomolgus monkey brain caudate after 175 mins postinjection; format: ADME, organism-based, Macaca fascicularis, Caudate nucleus; conditions: in vivo

Compound | Drug uptake
O=C(OCCC[18F])C1C2CCC(CC1c1cccc(/C=C\Br)c1)N2 (stereo unspecified) | 4.04

system: not listed separately; assay: Ratio of drug uptake in putamen to cerebellum in anesthetized cynomolgus monkey after 155 mins postinjection; format: ADME, organism-based, Macaca fascicularis; conditions: in vivo

Compound | Ratio
O=C(OCCC[18F])C1C2CCC(CC1c1cccc(/C=C\Br)c1)N2 (stereo unspecified) | 1.7

system: Caudate; assay: Drug uptake in anesthetized cynomolgus monkey brain caudate after 15.5 mins postinjection; format: ADME, organism-based, Macaca fascicularis, Caudate nucleus; conditions: in vivo

Compound | Drug uptake
O=C(OCCC[18F])C1C2CCC(CC1c1cccc(/C=C\Br)c1)N2 (stereo unspecified) | 4.3

system: not listed separately; assay: Ratio of drug uptake in midbrain to cerebellum in anesthetized cynomolgus monkey after 225 mins postinjection; format: ADME, organism-based, Macaca fascicularis; conditions: in vivo, 3.75 h

Compound | Ratio
O=C(OCCC[18F])C1C2CCC(CC1c1cccc(/C=C\Br)c1)N2 (stereo unspecified) | 2.1

system: not listed separately; assay: Drug uptake in anesthetized cynomolgus monkey brain frontal lobe after 65 mins postinjection; format: ADME, organism-based, Macaca fascicularis; conditions: in vivo

Compound | Drug uptake
O=C(OCCC[18F])C1C2CCC(CC1c1cccc(/C=C\Br)c1)N2 (stereo unspecified) | 3.69

system: not listed separately; assay: Drug uptake in anesthetized cynomolgus monkey brain frontal lobe after 75 mins postinjection; format: ADME, organism-based, Macaca fascicularis; conditions: in vivo, 1.25 h

Compound | Drug uptake
O=C(OCCC[18F])C1C2CCC(CC1c1cccc(/C=C\Br)c1)N2 (stereo unspecified) | 3.49

system: not listed separately; assay: Drug uptake in anesthetized cynomolgus monkey brain frontal lobe after 45 mins postinjection; format: ADME, organism-based, Macaca fascicularis; conditions: in vivo, 0.75 h

Compound | Drug uptake
O=C(OCCC[18F])C1C2CCC(CC1c1cccc(/C=C\Br)c1)N2 (stereo unspecified) | 3.72

system: not listed separately; assay: Ratio of drug uptake in thalamus to cerebellum in anesthetized cynomolgus monkey after 95 mins postinjection; format: ADME, organism-based, Macaca fascicularis; conditions: in vivo

Compound | Ratio
O=C(OCCC[18F])C1C2CCC(CC1c1cccc(/C=C\Br)c1)N2 (stereo unspecified) | 1.4

system: Caudate; assay: Drug uptake in anesthetized cynomolgus monkey brain caudate after 3.5 mins postinjection; format: ADME, organism-based, Macaca fascicularis, Caudate nucleus; conditions: in vivo

Compound | Drug uptake
O=C(OCCC[18F])C1C2CCC(CC1c1cccc(/C=C\Br)c1)N2 (stereo unspecified) | 1.7

system: not listed separately; assay: Drug uptake in anesthetized cynomolgus monkey brain frontal lobe after 4.5 mins postinjection; format: ADME, organism-based, Macaca fascicularis; conditions: in vivo, 0.075 h

Compound | Drug uptake
O=C(OCCC[18F])C1C2CCC(CC1c1cccc(/C=C\Br)c1)N2 (stereo unspecified) | 1.85

system: not listed separately; assay: Drug uptake in anesthetized cynomolgus monkey brain occipital lobe after 4.5 mins postinjection; format: ADME, organism-based, Macaca fascicularis; conditions: in vivo, 0.075 h

Compound | Drug uptake
O=C(OCCC[18F])C1C2CCC(CC1c1cccc(/C=C\Br)c1)N2 (stereo unspecified) | 2.44

system: not listed separately; assay: Ratio of drug uptake in pons to cerebellum in anesthetized cynomolgus monkey after 105 mins postinjection; format: ADME, organism-based, Macaca fascicularis; conditions: in vivo, 1.75 h

Compound | Ratio
O=C(OCCC[18F])C1C2CCC(CC1c1cccc(/C=C\Br)c1)N2 (stereo unspecified) | 1.3

system: Midbrain; assay: Drug uptake in anesthetized cynomolgus monkey brain midbrain after 85 mins postinjection; format: ADME, organism-based, Macaca fascicularis; design: unit not given here; conditions: in vivo

Compound | Drug uptake
O=C(OCCC[18F])C1C2CCC(CC1c1cccc(/C=C\Br)c1)N2 (stereo unspecified) | 5.86

system: Putamen; assay: Drug uptake in anesthetized cynomolgus monkey brain putamen after 3.5 mins postinjection; format: ADME, organism-based, Macaca fascicularis; conditions: in vivo

Compound | Drug uptake
O=C(OCCC[18F])C1C2CCC(CC1c1cccc(/C=C\Br)c1)N2 (stereo unspecified) | 2.28

system: Medulla; assay: Drug uptake in anesthetized cynomolgus monkey brain medulla after 175 mins postinjection; format: ADME, organism-based, Macaca fascicularis; conditions: in vivo

Compound | Drug uptake
O=C(OCCC[18F])C1C2CCC(CC1c1cccc(/C=C\Br)c1)N2 (stereo unspecified) | 4.26

system: not listed separately; assay: Drug uptake in anesthetized cynomolgus monkey brain cerebellum after 225 mins postinjection; format: ADME, organism-based, Macaca fascicularis; conditions: in vivo, 3.75 h

Compound | Drug uptake
O=C(OCCC[18F])C1C2CCC(CC1c1cccc(/C=C\Br)c1)N2 (stereo unspecified) | 2.03

system: not listed separately; assay: Drug uptake in anesthetized cynomolgus monkey brain occipital lobe after 65 mins postinjection; format: ADME, organism-based, Macaca fascicularis; conditions: in vivo

Compound | Drug uptake
O=C(OCCC[18F])C1C2CCC(CC1c1cccc(/C=C\Br)c1)N2 (stereo unspecified) | 4.52

system: not listed separately; assay: Ratio of drug uptake in midbrain to cerebellum in anesthetized cynomolgus monkey after 95 mins postinjection; format: ADME, organism-based, Macaca fascicularis; conditions: in vivo

Compound | Ratio
O=C(OCCC[18F])C1C2CCC(CC1c1cccc(/C=C\Br)c1)N2 (stereo unspecified) | 1.5

system: not listed separately; assay: Ratio of drug uptake in midbrain to cerebellum in anesthetized cynomolgus monkey after 85 mins postinjection; format: ADME, organism-based, Macaca fascicularis; conditions: in vivo

Compound | Ratio
O=C(OCCC[18F])C1C2CCC(CC1c1cccc(/C=C\Br)c1)N2 (stereo unspecified) | 1.5

system: not listed separately; assay: Drug uptake in anesthetized cynomolgus monkey brain occipital lobe after 6.5 mins postinjection; format: ADME, organism-based, Macaca fascicularis; design: unit not given here; conditions: in vivo

Compound | Drug uptake
O=C(OCCC[18F])C1C2CCC(CC1c1cccc(/C=C\Br)c1)N2 (stereo unspecified) | 3.31

system: not listed separately; assay: Drug uptake in anesthetized cynomolgus monkey brain cerebellum after 1.5 mins postinjection; format: ADME, organism-based, Macaca fascicularis; conditions: in vivo, 0.025 h

Compound | Drug uptake
O=C(OCCC[18F])C1C2CCC(CC1c1cccc(/C=C\Br)c1)N2 (stereo unspecified) | 0.48
